Converted amounts (≈) assume the structure as drawn. Read-outs that look alike come from different tables or passages of the source.

The test system of one assay is S. aureus ATCC 43300. Description: In vitro antibacterial activity assay (MIC, broth dilution). In kind it is cell-based. The note with it: Staphylococcus aureus. From the text: (§1) The method used to indicate the activity of the compounds in this example is to record the minimum inhibitory concentration (MIC) of the compounds against bacteria. The specific experimental method is as follows:
(§2) 1. The bacterial liquid cultured from a single colony was taken, and diluted into autoclaved CAMHB broth in a ratio of 1:1000, and mixed well.
(§3) 2. The prepared drug solution was filtered through a sterile 0.22 µm syringe filter and placed in a sterile EP tube for later use.
(§4) 3. A 96-well plate was taken, and 20 µL of drug solution ([…]) was added to each well in the first column of the 96-well plate. Then, 180 µL of diluted bacterial liquid was added and mixed well (Perform 3 replicate rows for each drug).
(§5) The same process was performed for the hydrochloride drug.
(§6) 4. 100 μL of diluted bacterial liquid was added to each well in the remaining 11 columns of the 96-well plate. Drugs are the same as above.
(§7) 5. Serial dilution: 100 μL of liquid was taken from the first column to the second column, mixed well, then 100 μL of liquid was taken from the second column to the third column, mixed well, and so on, sequentially diluting down to the last column (column 12). After mixing column 12 well, 100 μL of liquid thereof was discarded. The drug concentration in each well was decreased by two-fold serially (the concentration in the first well is 40 μg/mL).
(§8) 6. Blank CAMHB broth without added bacteria liquid was added to 3 blank wells in the 96-well plate, as negative control.
(§9) 7. The diluted bacterial liquid was added to 3 blank wells in the 96-well plate, as positive control.
(§10) 8. Incubated at 37° C. for 16 hours.
(§11) 9. Results reading: the minimum inhibitory concentration is the minimum drug concentration at which no bacterial growth is visible to the naked eye and without turbidity.

Another assay relates to E. coli ATCC 25922. The description is as above. The assay is classed as cell-based. Conditions: Escherichia coli, ATCC25922.
Text: as §1, §2, §3, §4, §5, §6, §7, §8, §9, §10, §11

A further assay has as its system E. feacium ATCC 700221. Described as above. In kind it is cell-based. The note with it: read-out: G+ bacteria MIC E. feacium ATCC 700221.
Text: as §1, §2, §3, §4, §5, §6, §7, §8, §9, §10, §11

The subject of the next assay is A. baumannii ATCC 17978. The description is as above. The note with it: Acinetobacter baumannii, ATCC17978; Table 2; read-out: G- bacteria MIC A. baumannii ATCC 17978. The assay is classed as cell-based.
Text: as §1, §2, §3, §4, §5, §6, §7, §8, §9, §10, §11

Another assay deals with P. aeruginosa ATCC 27853. The assay is described as above. The note with it: Pseudomonas aeruginosa, ATCC27853; Table 2; read-out: G- bacteria MIC P. aeruginosa ATCC 27853. In kind it is cell-based.
Text: as §1, §2, §3, §4, §5, §6, §7, §8, §9, §10, §11

In the next assay the test system is Hela. In words: In vitro anticancer activity test (MTT cell proliferation). In kind it is cell-based. The note with it: Homo sapiens, average proliferation inhibition rate at the dosage of 40 μM, read-out: Hela Average inhibition rate %. The protocol: (§12) The anticancer activity of the compounds was tested using an in vitro cancer cell tests. The specific test method is as follows:
(§13) 1. Cell recovery and culture method: the cryovial was taken out from the liquid nitrogen container firstly, soaked directly in 37° C. warm water, and shaked from time to time to let it thaw as soon as possible. Then, the cryovial was transferred to a clean bench, and the lid was open. The cell suspension was taken into a centrifuge tube using a rubber-tipped dropper and more than 10 times the culture medium was added, mixed well, and centrifuged at 50 g for 5 minutes. Then, the supernatant was discarded, complete culture medium containing 10% fetal bovine serum was added to resuspend the cells, the cells was counted, the cell density was adjusted, and then inoculated into a culture bottle. The culture bottle was placed in a cell culture incubator at 5% CO2 and 37° C. The complete culture medium was replaced once the next day and the culture was continued.
(§14) 2. Cell passaging method: adherent cells in the logarithmic growth phase were placed in a clean bench, the original culture medium was discarded, and washed three times with 1×PBS. An appropriate amount of 0.25% trypsin digestion solution was added to moisten the cells, and then the trypsin solution was aspirated. The cells were placed in a cell culture incubator at 5% CO2 and 37° C. for digestion for a suitable time, and observed under a microscope. When 90% of the cells become round, the cells were moved immediately to the clean bench and complete culture medium was added to terminate digestion. Then, the cells were dislodged by pipetting up and down with a rubber-tipped dropper to single cells. The cells were counted, and the cell density was adjusted. The cells were inoculated into a suitable culture bottle or dish, added enough complete culture medium, and placed in a cell culture incubator at 5% CO2 and 37° C. for static culture.
(§15) For suspension cells in the logarithmic phase, the original culture medium was directly centrifuged at 50 g for 5 minutes, the supernatant was discarded, and the cells were washed once with PBS and centrifuged. After discarding the supernatant, the complete culture medium was added and the cells were dispersed using a rubber-tipped dropper. The cells are counted, and the cell density was adjusted. The cells were inoculated into appropriate culture bottles or culture dishes, and sufficient complete culture medium was added, and the cells were cultured in a cell culture incubator at 5% CO2 and 37° C.
(§16) 3. Cell proliferation assay: cells in good state in logarithmic phase were taken and appropriate amount of the cells was inoculated into 96-well plates according to the cell passage treatment method, with each well containing 180 μL complete medium. After the cells growth was recovered and the number of cells in each well is 5000±500, a drug was added for treatment.
After drug treatment during the experimental time, MTT solution with a final concentration of 0.5 mg/mL was added to each well, and placed in a cell culture incubator at 5% CO2 and 37° C. to allow a fully reaction of MTT with cells. After 4 hours, the solution in the 96-well plate was discarded, 100 µL of DMSO was added, and shaked to dissolve the formazan precipitated at the bottom of the plate, and the absorbance value of samples was detected at a wavelength of 570 nm using a microplate reader. Calculation method of cell viability rate:
Table 4 lists some compounds that have inhibitory effects against both of bacteria and cancer cells. In the table, the inhibitory effects against cancer cells are shown: the average proliferation inhibition rate (%) against cancer cells at the dosage of 40 μM.

Assay [1] has as its system Staphylococcus aureus ATCC43300. Description: Systemic blood infection animal model. The assay is classed as in vivo, mice. Conditions: 4 mg/kg oral gavage, 3 times a day, 7 days. The procedure:
(2) Sterile phosphate buffered saline (PBS) was used to prepare a 1×10^7 CFU/mL Staphylococcus aureus ATCC43300 bacterial suspension for later use; the drug dosage required for mice was calculated for each group, and solutions of Example 34 and solvent for gavage (400 or 200 μL of Tween 80 was mixed with Example 34, grinded with an agate mortar until it became transparent, and then 0.5% sodium carboxymethyl cellulose solution was added to reach the required concentration and volume of the test drug) were prepared for later use.
(3) Except for the blank group, 100 μL of the bacterial suspension prepared in step 2 was injected into the tail vein of each mouse.
(4) 2 hours after the challenge, the drugs prepared in step 2 were administered by oral gavage according to the groups, 3 times a day, 200 uL each time, with an interval of 8 hours, for a total of 7 days. Mice were administered by oral gavage with the drug solvent for the model group and the blank group.
(5) 8 h after the last administration, mice were euthanized by cervical dislocation, disinfected with 75% alcohol, and then necropsied under sterile conditions. The kidneys and livers were harvested, observed and photographed, and the weight was recorded.
(6) The kidneys and livers were placed in a sterile glass grinder and sterile PBS in a volume ten times the weight of the organs was added and grinded. The grinding solutions were taken out, 10-fold serially diluted, smeared to a TSA solid culture medium, and incubated at 37° C. for 16 hours, then the colonies were counted. The number of colonies of the organs was calculated to evaluate the therapeutic effect.

The test system is the same in assay [2]. Description: Resistance test of bacteria against compounds (serial induction, 21 days). In kind it is cell-based. The procedure:
This example provides a resistance test of bacteria against compounds, and the specific experimental method is as follows.
1. […] It was ensured that among the 6 final concentrations of the drug diluted into the wells, some were higher than the original MIC of the bacteria and some were lower than the original MIC of the bacteria.
2. Preparation of bacterial liquid: 10 mL of culture medium was taken and added to a sterilized plate using a pipette, then 100 µL of the above-mentioned passaged bacterial liquid was added, and mixed well for later use.
3. The above-mentioned diluted bacterial liquid was taken and added to a 96-well plate using a pipette, 180 μL per well, 3 wells per group, 6 groups in total. 20 μL of drug solution was added to each well (note: it is necessary to replace the pipette tip each time the drug is added), so that the final drug concentrations were […], respectively. The well with 200 μL of diluted bacterial liquid was used as the positive control well, and the well with 200 μL of culture medium was used as the negative control well.
The test object was Staphylococcus aureus (S. aureus).

Assay [3] concerns human acute myeloid leukemia cell MOLM-13. In words: In vitro anticancer activity test (MTT cell proliferation). In kind it is cell-based. The procedure:
as §12, §13, §14, §15, §16
(§17) After drug treatment during the experimental time, MTT solution with a final concentration of 0.5 mg/mL was added to each well, and placed in a cell culture incubator at 5% CO2 and 37° C. to allow a fully reaction of MTT with cells. After 4 hours, the solution in the 96-well plate was discarded, 100 µL of DMSO was added, and shaked to dissolve the formazan precipitated at the bottom of the plate, and the absorbance value of samples was detected at a wavelength of 570 nm using a microplate reader. Calculation method of cell viability rate: […]

Assay [4] deals with human renal cancer cell OS-RC-2. The assay is described as above. The assay is classed as cell-based. The procedure: as §12, §13, §14, §15, §16, §17
In assay [5] the test system is human liver cancer cell BLE-7402. The description is as above. In kind it is cell-based. The procedure: as §12, §13, §14, §15, §16, §17
The test system of assay [6] is human acute monocytic leukemia cell THP-1. The assay is described as above. In kind it is cell-based. The protocol: as §12, §13, §14, §15, §16, §17
Where [7] appears, read: ATCC43300, Table 1, read-out: G+ bacteria MIC S. aureus ATCC 43300.
Setting [8] is: Table 2, read-out: G- bacteria MIC E. coli ATCC 25922.

`COc1c(-c2ccc(NC(=O)C(F)(F)F)c(C#N)c2)c(F)cc2c(=O)c(C(=O)O)cn(C3CC3)c12` [Example 8, 7-(3-cyano-4-(2,2,2-trifluoroacetamido)phenyl)-1-cyclopropyl-6-fluoro-8-methoxy-4-oxo-1,4-dihydroquinolin-3-carboxylic acid]: the MIC with S. aureus ATCC 43300 (setting [7]) is at most 0.1 µg/mL; in the assay on E. coli ATCC 25922 (setting [8]), at most 0.1 µg/mL; in the assay with E. feacium ATCC 700221, 1 to 8 µg/mL (≈ 2.04 to 16.3 µM); in the assay on A. baumannii ATCC 17978, 0.1 to 1 µg/mL (≈ 0.204 to 2.04 µM); in the assay on P. aeruginosa ATCC 27853 it was 0.1 to 1 µg/mL (≈ 0.204 to 2.04 µM).
For `CCCCCNS(=O)(=O)c1ccc(-c2c(F)cc3c(=O)c(C(=O)O)cn(C4CC4)c3c2Cl)cn1` [Example 20, 8-chloro-1-cyclopropyl-6-fluoro-4-oxo-7-(6-(N-pentylaminosulfonyl)pyridine-3-yl)-1,4-dihydroquinolin-3-carboxylic acid], the minimum inhibitory concentration (MIC) is at most 0.1 µg/mL with S. aureus ATCC 43300 (setting [7]) and over 8 µg/mL in the assay on E. feacium ATCC 700221 (Table 1).
Consider `O=C(O)c1cn(C2CC2)c2cc(N3CCNCC3)c(F)cc2c1=O` [Ciprofloxacin, reference compound], for which the inhibition at 40 µM with Hela was at most 10%. Further, the MIC is at most 1 µg/mL in the assay on S. aureus ATCC 43300 (ATCC43300, Table 4, read-out: S. aureus ATCC 43300 MIC) and at most 1 µg/mL with E. coli ATCC 25922 (Table 4, read-out: E. coli ATCC 25922 MIC). Besides, the “number of colonies of liver and kidney” value in assay [1] is “not apparent”. Also, the “resistance of bacteria in the subsequent culture” value in assay [2] (S. aureus ATCC43300, 21 days) is “increased rapidly”. In assay [2] (period of 21 days, S. aureus ATCC43300), the MIC at the end of the resistance experiment came to 128 µg/mL.
For the molecule `O=C(O)c1cn(C2CC2)c2cc(-c3ccc(S(=O)(=O)NCCCl)cc3)c(F)cc2c1=O` [Example 15, 7-(4-(N-(2-chloroethyl)sulfamoyl)phenyl)-1-cyclopropyl-6-fluoro-4-oxo-1,4-dihydroquinolin-3-carboxylic acid], the MIC is at most 0.1 µg/mL in the assay on S. aureus ATCC 43300 (ATCC43300, read-out: G+ bacteria MIC S. aureus ATCC 43300) and over 8 µg/mL in the assay on E. feacium ATCC 700221.
`O=C(O)c1cn(C2CC2)c2nc(-c3ccc(S(=O)(=O)NCCO)cc3)c(F)cc2c1=O` [Example 18, 1-cyclopropyl-6-fluoro-7-(4-(N-(2-hydroxyethyl)aminosulfonyl)phenyl)-4-oxo-1,4-dihydro-1,8-naphthyridine-3-carboxylic acid]: the MIC in the assay on S. aureus ATCC 43300 (setting [7]) is at most 0.1 µg/mL; in the assay on E. coli ATCC 25922 (setting [8]), at most 0.1 µg/mL; with E. feacium ATCC 700221 (Table 1), 1 to 8 µg/mL (≈ 2.23 to 17.9 µM); in the assay with A. baumannii ATCC 17978, 0.1 to 1 µg/mL (≈ 0.223 to 2.23 µM); with P. aeruginosa ATCC 27853, 0.1 to 1 µg/mL (≈ 0.223 to 2.23 µM).
In the case of `O=C(O)c1cn(C2CC2)c2cc(N3CCNCC3)c(F)cc2c1=O` [Reference compound 2 (Ciprofloxacin), reference compound], the IC50 in [3], in assay [4], in [5] and in [6] was over 100 µM each time.

Source of the values: patent US20260224555A1, “NEW PHENYLQUINOLONE COMPOUND HAVING ANTIBACTERIAL AND ANTI-CANCER FUNCTIONS AND PREPARATION THEREOF” (AlphaMol Science Ltd (Shanghai), priority 2022, published 2026).
